The values below are quoted from earlier work in patent publication US20110088590A1, “METHOD FOR TREATING WOOD” (priority 2005, published 2011).

The subject of this data set is honey bees and other beneficial insects, fish, aquatic insects, crayfish, and shrimp. Conditions: for many species.

As to `CC1(C)C(C=C(Cl)Cl)C1C(=O)OCc1cccc(Oc2ccccc2)c1` (stereo not shown) [Permethrin], the lethal concentration entry is on record as “less than one”.
